The source made the active and inactive calls.
Assays:
[1] = molecular target: Platelet-derived growth factor receptor beta (Homo sapiens, UniProt P09619); format: functional;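 further: value comes from a kinome panel, with PDGFRB tested as one panel member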
[2] = molecular target: Serine/threonine-protein kinase PLK3 (Homo sapiens, UniProt Q9H4B4); format: functional
[3] = molecular target: Serine/threonine-protein kinase PLK1 (Homo sapiens, UniProt P53350); format: functional;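 further: PLK1 measured as one member of a kinome-wide profiling panel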
[4] = molecular target: Fibroblast growth factor receptor 1 (Homo sapiens, UniProt P11362); format: functional
[5] = molecular target: T1, Receptor-type tyrosine-protein kinase FLT3 (Homo sapiens, UniProt P36888); format: functional;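 further: FLT3 was tested as one member of a kinome-wide kinase panel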
T1 sequence (P36888 whole entry): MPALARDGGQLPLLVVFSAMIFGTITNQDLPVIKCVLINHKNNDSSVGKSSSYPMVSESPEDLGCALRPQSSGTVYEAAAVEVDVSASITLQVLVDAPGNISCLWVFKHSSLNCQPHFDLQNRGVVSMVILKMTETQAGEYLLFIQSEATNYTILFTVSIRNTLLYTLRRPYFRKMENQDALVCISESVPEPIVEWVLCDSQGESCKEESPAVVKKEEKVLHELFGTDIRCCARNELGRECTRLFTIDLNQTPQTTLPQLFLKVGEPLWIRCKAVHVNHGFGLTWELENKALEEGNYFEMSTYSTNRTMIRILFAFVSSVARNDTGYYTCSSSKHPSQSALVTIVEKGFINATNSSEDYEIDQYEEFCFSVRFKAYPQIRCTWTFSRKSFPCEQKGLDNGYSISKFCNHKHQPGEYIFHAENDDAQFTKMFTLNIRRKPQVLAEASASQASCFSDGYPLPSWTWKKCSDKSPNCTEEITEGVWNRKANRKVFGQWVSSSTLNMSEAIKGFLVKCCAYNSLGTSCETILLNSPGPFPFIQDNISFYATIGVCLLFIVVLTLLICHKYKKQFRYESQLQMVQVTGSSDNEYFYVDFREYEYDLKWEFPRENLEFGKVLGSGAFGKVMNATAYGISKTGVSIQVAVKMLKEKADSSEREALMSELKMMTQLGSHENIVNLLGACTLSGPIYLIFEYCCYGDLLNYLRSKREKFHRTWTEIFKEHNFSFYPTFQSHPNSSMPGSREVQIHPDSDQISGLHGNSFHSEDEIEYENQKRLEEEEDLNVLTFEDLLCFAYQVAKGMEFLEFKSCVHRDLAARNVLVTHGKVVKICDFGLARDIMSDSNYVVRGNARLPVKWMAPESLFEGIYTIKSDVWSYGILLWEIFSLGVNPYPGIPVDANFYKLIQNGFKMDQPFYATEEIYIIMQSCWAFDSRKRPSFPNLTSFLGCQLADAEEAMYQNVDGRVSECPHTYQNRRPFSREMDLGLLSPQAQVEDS

[6] = molecular target: Serine/threonine-protein kinase pim-1 (Homo sapiens, UniProt P11309); format: functional
[7] = molecular target: Cyclin-dependent kinase 19 (Homo sapiens, UniProt Q9BWU1); experiment: Navigating the Kinome. Panel member name: CDC2L6; format: functional
[8] = molecular target: Serine/threonine-protein kinase pim-3 (Homo sapiens, UniProt Q86V86); format: functional;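 further: value obtained as one member of a broad kinase panel profiling effort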
[9] = molecular target: RAC-alpha serine/threonine-protein kinase (Homo sapiens, UniProt P31749); format: functional;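 further: AKT1 affinity measured as one member of a kinome-wide kinase profiling panel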
[10] = molecular target: Serine/threonine-protein kinase PLK4 (Homo sapiens, UniProt O00444); format: functional;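 further: PLK4 measured as one member of a kinome-wide kinase profiling panel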
[11] = molecular target: Macrophage colony-stimulating factor 1 receptor (Homo sapiens, UniProt P07333); format: functional;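 further: value comes from the Navigating the Kinome screening panel, CSF1R member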
[12] = molecular target: cAMP-dependent protein kinase catalytic subunit alpha (Homo sapiens, UniProt P17612); format: functional
Aurora kinase B = Aurora kinase B (Homo sapiens, UniProt Q96GD4); format: functional
[13] = molecular target: Vascular endothelial growth factor receptor 2 (Homo sapiens, UniProt P35968); format: functional
Insulin receptor = Insulin receptor (Homo sapiens, UniProt P06213); format: functional;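 further: insulin receptor kinase tested as one member of a kinome-wide kinase panel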
[14] = molecular target: RAC-gamma serine/threonine-protein kinase (Homo sapiens, UniProt Q9Y243); format: functional
Aurora kinase A = Aurora kinase A (Homo sapiens, UniProt O14965); format: functional;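 further: value from the Navigating the Kinome kinase panel profiling, panel entry STK6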
[15] = molecular target: Cyclin-dependent kinase 9 (Homo sapiens, UniProt P50750); format: functional;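 further: value from the CDK9 entry of a kinome-spanning kinase panel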
[16] = molecular target: Dual specificity tyrosine-phosphorylation-regulated kinase 1A (Homo sapiens, UniProt Q13627); format: functional;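 further: measured against DYRK1A as one member of a broad kinome profiling panel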
[17] = molecular target: Serine/threonine-protein kinase Chk1 (Homo sapiens, UniProt O14757); format: functional;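 further: measured as one member of a kinome-wide kinase profiling panel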
[18] = molecular target: Protein kinase C theta type (Homo sapiens, UniProt Q04759); experiment: Navigating the Kinome. Panel member name: PRKCQ; format: functional
[19] = molecular target: Mitogen-activated protein kinase 9 (Homo sapiens, UniProt P45984); format: functional;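 further: value from a kinome panel profiling assay, MAPK9 panel entry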
[20] = molecular target: Mitogen-activated protein kinase 12 (Homo sapiens, UniProt P53778); format: functional;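 further: measured as one member of a kinome-wide kinase profiling panel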
[21] = molecular target: C-C chemokine receptor type 6 (Homo sapiens, UniProt P51684); experiment: antagonism of CCR6 beta-arrestin recruitment – cell-based, luminescent beta-arrestin readout, dose response (AID 504728); format: functional
[22] = Trypanosoma cruzi growth suppression in host cells – NIH3T3 host cells, beta-gal luminescence, confirmation (AID 2044); format: functional, cell-based;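 further: intracellular parasites grown in NIH/3T3 mouse fibroblasts as host cells; luminescent beta-galactosidase reporter signal from transgenic T. cruzi replicating inside host cells; inhibitors lower the luminescence signal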
[23] = molecular target: Heat shock protein HSP 90-alpha (Homo sapiens, UniProt P07900); format: functional, organism-based
Protein RecA = molecular target: T2, Protein RecA (Mycobacterium tuberculosis, UniProt P9WHJ3); experiment: Fluorescence Cell-Free Homogeneous Dose Retest to Identify Inhibitors of RecA-Intein Splicing Activity. [Related pubchem assays (depositor defined):AID2097, AID2223, AID489010, AID492950]; format: functional
T2 sequence (P9WHJ3 whole entry): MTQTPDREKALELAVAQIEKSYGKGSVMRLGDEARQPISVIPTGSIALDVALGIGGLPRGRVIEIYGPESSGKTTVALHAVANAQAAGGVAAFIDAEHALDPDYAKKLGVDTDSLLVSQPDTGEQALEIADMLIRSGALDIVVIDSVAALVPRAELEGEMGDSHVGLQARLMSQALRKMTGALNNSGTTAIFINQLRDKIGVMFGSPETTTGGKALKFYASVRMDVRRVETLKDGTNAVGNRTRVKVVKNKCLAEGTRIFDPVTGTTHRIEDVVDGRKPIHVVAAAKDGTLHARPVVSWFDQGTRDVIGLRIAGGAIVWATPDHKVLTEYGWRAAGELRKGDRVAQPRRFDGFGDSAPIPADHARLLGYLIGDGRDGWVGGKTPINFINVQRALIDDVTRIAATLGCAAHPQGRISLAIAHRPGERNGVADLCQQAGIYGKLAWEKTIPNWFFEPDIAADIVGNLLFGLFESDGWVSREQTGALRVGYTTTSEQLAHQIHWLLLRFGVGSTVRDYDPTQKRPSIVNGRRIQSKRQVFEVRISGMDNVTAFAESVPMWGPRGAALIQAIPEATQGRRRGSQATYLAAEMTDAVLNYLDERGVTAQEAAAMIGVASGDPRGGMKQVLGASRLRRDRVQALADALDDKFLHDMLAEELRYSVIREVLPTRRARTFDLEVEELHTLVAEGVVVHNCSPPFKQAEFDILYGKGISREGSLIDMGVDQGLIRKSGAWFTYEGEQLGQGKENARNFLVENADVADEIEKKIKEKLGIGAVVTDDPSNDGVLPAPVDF

[24] = reduction of Shn3 3'UTR-driven luciferase in osteoblasts – cell-based, Clone20 osteoblasts, firefly luciferase, cherry-picked, dose response (AID 624132); format: functional;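 further: firefly luciferase luminescence from reporter carrying the Shn3 3'UTR in osteoblasts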
[25] = decrease of insulin promoter-GFP reporter – imaging, high-content screening, mouse beta cells (AID 1628); format: functional; settings: MIN6
[26] = NIH3T3 cell viability loss – ATP luminescence, mouse fibroblasts, counter-screen, dose response (AID 2010); format: functional, cell-based;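 further: cells exposed to compound for about 90 hours before reading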
[27] = MIN6 cell viability loss – mouse insulinoma, cytotoxicity control, dose response (AID 2122); format: functional;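 further: confirmatory high-throughput counterscreen run to flag cytotoxic compounds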
[28] = non-specific 3'UTR reporter inhibition in Clone20-Shn3RL – cell-based, Renilla luciferase, cherry-picked, counter-screen for Shn3 inhibitor project, dose response (AID 624133); format: functional
[29] = molecular target: Beta-2 adrenergic receptor (Homo sapiens, UniProt P07550); experiment: ADRB2 activation measured by internalization – cell-based, FAP fluorogen, flow cytometry, cherry pick 1, dose response (AID 588763); format: functional
[30] = molecular target: T3, Replicative DNA helicase DnaB (Mycobacterium tuberculosis, UniProt P9WMR3); experiment: DnaB intein splicing inhibitors, dose response, biochemical, cell-free fluorescence (AID 449749); format: functional
T3 sequence (P9WMR3 whole entry): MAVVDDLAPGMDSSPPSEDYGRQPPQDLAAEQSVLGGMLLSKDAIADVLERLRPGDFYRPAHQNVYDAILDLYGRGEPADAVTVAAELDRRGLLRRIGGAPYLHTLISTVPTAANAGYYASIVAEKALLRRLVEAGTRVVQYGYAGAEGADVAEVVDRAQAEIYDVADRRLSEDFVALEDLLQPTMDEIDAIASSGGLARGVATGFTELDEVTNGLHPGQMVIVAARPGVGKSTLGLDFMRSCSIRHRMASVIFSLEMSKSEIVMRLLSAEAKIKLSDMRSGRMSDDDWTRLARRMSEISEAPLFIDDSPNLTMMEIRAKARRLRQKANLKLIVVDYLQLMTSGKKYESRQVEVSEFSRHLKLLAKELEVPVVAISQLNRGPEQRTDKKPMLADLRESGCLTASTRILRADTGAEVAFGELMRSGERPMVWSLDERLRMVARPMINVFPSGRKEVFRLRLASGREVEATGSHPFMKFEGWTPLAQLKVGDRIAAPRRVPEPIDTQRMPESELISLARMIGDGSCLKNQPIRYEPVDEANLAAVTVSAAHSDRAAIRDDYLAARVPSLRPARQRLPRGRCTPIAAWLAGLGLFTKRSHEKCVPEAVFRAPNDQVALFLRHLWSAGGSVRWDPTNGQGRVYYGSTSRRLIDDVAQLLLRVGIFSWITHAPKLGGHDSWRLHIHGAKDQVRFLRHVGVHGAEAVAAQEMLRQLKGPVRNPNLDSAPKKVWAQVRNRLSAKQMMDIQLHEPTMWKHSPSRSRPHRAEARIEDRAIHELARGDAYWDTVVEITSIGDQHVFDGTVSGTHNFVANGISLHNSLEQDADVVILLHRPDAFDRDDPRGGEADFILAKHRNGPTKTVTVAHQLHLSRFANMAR

Beta-galactosidase = Beta-galactosidase (Escherichia coli, UniProt Q8VNN2); experiment: detection-enzyme interference by beta-gal modulators – biochemical, E. coli enzyme, set 3, artefact control for CCR6 antagonist project, dose response (AID 504712); format: functional
[31] = viability loss of HPDE-C7K cells – cell-based, fluorescence, HTS, primary screen (AID 431); format: functional; settings: Homo sapiens
[32] = HPDE-C7 pancreatic duct cell viability loss – fluorescence, HTS (AID 430); format: functional, cell-based; settings: Homo sapiens
[33] = cAMP pathway inhibition in counterscreen cell line – TR-FRET cAMP detection, counter-screen for MC4R biased antagonist project, dose response (AID 602305); format: functional, cell-based;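 further: U2OS cells stimulated with forskolin near its EC80 as the cAMP inducer; potency is for inhibition of forskolin-stimulated cAMP signaling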
[34] = loss of viability in HepG2 cells – cell-based, CellTiter-Glo, cherry-picked, cytotoxicity control for Shn3 inhibitor project, dose response (AID 624134); format: functional
Melanocortin receptor 4 = Melanocortin receptor 4 (Homo sapiens, UniProt P32245); experiment: inhibitors of MC4R cAMP signaling – cell-based, TR-FRET, biased antagonists, dose response (AID 602298); format: functional;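 further: antagonist potency against agonist-stimulated cAMP production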
[35] = molecular target: Platelet-derived growth factor receptor alpha (Homo sapiens, UniProt P16234); experiment: Navigating the Kinome. Panel member name: PDGFRA; format: functional
[36] = molecular target: Proto-oncogene tyrosine-protein kinase Src (Homo sapiens, UniProt P12931); format: functional;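 further: SRC entry within a kinome-wide kinase profiling panel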
Activin receptor type-1 = Activin receptor type-1 (Homo sapiens, UniProt Q04771); experiment: Navigating the Kinome. Panel member name: ACVR1; format: functional
[37] = molecular target: Leukocyte tyrosine kinase receptor (Homo sapiens, UniProt P29376); experiment: Navigating the Kinome. Panel member name: LTK; format: functional
[38] = molecular target: Tyrosine-protein kinase Lck (Homo sapiens, UniProt P06239); format: functional;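 further: lck was assayed as one member of a kinase panel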
[39] = molecular target: BDNF/NT-3 growth factors receptor (Homo sapiens, UniProt Q16620); format: functional;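 further: NTRK2 measured as one member of a broad kinome-wide kinase profiling panel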

Platelet-derived growth factor receptor beta, sequence (P09619 whole entry): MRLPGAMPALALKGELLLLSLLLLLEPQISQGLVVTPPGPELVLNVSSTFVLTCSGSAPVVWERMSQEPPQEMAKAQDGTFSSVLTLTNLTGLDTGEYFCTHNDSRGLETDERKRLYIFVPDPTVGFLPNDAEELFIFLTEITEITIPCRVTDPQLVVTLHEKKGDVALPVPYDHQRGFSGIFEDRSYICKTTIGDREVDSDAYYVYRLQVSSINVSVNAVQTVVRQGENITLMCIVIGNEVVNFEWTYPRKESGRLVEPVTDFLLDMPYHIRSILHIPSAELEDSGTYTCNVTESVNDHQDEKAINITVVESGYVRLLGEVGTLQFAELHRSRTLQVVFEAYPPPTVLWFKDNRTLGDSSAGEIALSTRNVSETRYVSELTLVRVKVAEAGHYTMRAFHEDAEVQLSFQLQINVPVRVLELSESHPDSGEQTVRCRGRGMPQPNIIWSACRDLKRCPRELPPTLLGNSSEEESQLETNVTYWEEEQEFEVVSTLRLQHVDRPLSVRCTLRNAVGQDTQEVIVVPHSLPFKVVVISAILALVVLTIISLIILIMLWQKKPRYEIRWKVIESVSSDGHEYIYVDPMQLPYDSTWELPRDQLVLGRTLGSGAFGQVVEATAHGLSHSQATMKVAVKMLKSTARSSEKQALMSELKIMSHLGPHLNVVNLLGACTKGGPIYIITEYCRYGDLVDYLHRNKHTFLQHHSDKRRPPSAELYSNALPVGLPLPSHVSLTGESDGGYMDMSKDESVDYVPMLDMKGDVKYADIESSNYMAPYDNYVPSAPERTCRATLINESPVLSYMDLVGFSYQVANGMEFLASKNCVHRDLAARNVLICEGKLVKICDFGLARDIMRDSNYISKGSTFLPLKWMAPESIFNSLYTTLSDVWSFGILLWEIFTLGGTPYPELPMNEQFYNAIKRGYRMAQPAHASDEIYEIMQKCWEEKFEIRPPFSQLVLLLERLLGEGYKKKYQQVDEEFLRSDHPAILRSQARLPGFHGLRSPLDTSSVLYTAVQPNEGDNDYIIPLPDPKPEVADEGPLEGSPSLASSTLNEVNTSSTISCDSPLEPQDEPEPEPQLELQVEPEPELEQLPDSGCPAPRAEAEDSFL
RAC-gamma serine/threonine-protein kinase, sequence (Q9Y243 whole entry): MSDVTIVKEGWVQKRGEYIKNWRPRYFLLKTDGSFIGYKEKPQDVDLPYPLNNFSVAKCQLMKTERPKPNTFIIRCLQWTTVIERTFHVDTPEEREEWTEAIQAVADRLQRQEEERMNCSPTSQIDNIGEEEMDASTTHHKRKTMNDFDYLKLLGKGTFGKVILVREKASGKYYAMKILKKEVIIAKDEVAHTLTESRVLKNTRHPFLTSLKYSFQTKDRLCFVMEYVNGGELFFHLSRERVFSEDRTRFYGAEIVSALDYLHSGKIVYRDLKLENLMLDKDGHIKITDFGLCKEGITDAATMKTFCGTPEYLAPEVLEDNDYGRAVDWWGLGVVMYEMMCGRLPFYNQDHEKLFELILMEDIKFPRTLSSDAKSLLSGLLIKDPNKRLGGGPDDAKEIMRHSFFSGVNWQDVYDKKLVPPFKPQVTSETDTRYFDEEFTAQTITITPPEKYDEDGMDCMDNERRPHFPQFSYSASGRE
Aurora kinase A, sequence (O14965 whole entry): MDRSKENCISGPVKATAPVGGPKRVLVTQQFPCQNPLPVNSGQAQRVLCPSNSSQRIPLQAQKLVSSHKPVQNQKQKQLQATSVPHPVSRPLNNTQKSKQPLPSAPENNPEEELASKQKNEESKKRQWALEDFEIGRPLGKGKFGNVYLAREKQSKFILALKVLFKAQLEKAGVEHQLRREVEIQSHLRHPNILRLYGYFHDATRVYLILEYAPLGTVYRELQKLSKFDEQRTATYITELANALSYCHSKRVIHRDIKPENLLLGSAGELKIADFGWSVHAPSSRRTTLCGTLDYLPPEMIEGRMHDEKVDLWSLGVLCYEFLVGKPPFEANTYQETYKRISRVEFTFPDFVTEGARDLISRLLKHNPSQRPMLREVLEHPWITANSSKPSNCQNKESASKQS
Melanocortin receptor 4, sequence (P32245 whole entry): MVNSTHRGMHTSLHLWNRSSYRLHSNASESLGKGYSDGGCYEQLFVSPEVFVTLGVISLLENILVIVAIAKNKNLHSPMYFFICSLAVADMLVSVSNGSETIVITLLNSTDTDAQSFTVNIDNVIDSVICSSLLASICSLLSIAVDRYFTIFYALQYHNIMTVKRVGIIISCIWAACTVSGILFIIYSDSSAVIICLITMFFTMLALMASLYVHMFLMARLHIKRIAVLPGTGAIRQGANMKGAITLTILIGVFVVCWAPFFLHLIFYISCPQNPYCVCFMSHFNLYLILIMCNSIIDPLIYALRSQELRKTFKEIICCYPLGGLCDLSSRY
Aurora kinase B, sequence (Q96GD4 whole entry): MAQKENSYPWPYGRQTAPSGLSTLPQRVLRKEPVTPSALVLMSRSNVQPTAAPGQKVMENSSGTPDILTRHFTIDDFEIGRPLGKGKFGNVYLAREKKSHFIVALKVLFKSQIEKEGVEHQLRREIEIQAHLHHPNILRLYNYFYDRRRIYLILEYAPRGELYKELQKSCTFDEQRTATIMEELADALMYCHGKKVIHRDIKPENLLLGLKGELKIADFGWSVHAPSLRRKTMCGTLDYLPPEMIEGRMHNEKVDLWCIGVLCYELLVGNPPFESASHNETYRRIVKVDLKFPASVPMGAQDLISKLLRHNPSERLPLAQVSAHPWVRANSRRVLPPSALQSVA
Platelet-derived growth factor receptor alpha, sequence (P16234 whole entry): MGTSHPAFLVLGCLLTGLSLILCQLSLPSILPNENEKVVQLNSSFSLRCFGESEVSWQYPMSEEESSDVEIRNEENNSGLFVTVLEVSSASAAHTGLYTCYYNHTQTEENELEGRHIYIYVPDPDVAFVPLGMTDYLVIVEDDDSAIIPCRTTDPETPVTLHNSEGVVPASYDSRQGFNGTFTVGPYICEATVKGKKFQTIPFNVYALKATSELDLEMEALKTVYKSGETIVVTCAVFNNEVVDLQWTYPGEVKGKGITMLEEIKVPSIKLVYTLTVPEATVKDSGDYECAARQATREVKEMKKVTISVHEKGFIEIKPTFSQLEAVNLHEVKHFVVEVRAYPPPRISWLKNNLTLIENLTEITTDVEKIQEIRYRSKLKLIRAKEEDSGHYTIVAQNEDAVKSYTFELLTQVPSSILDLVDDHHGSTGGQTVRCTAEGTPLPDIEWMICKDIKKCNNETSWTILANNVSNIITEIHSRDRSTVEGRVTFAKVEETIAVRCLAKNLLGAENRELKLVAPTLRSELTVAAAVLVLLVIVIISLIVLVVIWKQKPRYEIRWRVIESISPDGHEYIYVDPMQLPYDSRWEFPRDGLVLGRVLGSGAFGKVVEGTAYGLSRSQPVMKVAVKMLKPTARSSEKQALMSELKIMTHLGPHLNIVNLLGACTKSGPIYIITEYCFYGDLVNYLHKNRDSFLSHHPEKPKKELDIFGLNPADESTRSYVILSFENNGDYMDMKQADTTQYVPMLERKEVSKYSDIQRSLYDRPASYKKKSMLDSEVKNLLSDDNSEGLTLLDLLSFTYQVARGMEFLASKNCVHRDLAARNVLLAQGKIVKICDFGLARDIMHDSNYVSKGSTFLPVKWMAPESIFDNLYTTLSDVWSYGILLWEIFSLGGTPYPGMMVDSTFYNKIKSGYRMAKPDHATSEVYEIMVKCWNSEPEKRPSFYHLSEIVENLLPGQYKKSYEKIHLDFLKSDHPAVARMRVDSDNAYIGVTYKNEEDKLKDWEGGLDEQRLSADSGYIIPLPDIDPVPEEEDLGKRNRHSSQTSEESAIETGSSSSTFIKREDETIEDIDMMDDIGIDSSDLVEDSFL
Fibroblast growth factor receptor 1, sequence (P11362 whole entry): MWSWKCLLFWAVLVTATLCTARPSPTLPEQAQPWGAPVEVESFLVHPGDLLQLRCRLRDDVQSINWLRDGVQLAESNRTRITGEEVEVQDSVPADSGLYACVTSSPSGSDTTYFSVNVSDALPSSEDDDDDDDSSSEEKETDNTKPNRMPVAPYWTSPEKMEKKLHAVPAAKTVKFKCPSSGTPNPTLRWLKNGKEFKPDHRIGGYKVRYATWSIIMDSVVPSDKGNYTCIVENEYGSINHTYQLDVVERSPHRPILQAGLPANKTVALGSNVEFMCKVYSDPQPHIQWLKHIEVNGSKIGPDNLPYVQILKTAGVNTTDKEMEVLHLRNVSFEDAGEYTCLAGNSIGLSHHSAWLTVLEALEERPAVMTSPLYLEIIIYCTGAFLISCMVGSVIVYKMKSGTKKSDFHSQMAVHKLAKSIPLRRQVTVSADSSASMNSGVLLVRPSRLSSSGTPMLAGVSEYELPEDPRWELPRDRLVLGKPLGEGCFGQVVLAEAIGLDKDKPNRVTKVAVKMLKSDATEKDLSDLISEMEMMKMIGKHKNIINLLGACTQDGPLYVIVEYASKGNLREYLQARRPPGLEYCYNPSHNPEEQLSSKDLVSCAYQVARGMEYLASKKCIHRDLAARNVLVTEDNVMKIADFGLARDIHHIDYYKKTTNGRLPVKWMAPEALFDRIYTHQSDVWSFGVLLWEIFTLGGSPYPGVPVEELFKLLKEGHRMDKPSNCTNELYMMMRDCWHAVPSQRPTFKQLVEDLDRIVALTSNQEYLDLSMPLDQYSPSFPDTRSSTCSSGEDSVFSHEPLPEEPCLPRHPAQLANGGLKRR
Cyclin-dependent kinase 9, sequence (P50750 whole entry): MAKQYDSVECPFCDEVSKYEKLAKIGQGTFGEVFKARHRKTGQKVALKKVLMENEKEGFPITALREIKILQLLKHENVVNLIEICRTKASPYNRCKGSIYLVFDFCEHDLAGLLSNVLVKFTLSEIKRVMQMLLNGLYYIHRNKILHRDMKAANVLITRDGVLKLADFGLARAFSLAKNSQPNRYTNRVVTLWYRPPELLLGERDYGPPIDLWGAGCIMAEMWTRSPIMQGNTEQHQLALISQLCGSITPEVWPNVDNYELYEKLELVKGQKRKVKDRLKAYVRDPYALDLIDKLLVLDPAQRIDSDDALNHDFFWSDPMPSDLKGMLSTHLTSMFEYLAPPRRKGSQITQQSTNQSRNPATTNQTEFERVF

## O=C(Nc1ccccc1)Nc1ccccn1
[1]
  Ki: > 79.4 µM (inactive)
[2]
  Ki: > 79.4 µM (inactive)
[3]
  Ki: > 79.4 µM (inactive)
[4]
  Ki: > 50.1 µM (inactive)
[5]
  Ki: 3.16 µM (active)
[6]
  Ki: 79.4 µM (active)
[7]
  Ki: > 100 µM (inactive)
[8]
  Ki: 50.1 µM (active)
[9]
  Ki: > 79.4 µM (inactive)
[10]
  Ki: > 39.8 µM (inactive)
[11]
  Ki: > 63.1 µM (inactive)
[12]
  Ki: > 50.1 µM (inactive)
Aurora kinase B
  Ki: 79.4 µM (active)
[13]
  Ki: > 100 µM (inactive)
Insulin receptor
  Ki: > 50.1 µM (inactive)
[14]
  Ki: > 100 µM (inactive)
Aurora kinase A
  Ki: > 63.1 µM (inactive)
[15]
  Ki: > 63.1 µM (inactive)
[16]
  Ki: > 79.4 µM (inactive)
[17]
  Ki: > 79.4 µM (inactive)
[18]
  Ki: > 100 µM (inactive)

## CN(C)CCCN(C)C(=O)C1Cc2[nH]cnc2C2(CCCCC2)N1 (stereo not drawn)
[19]
  Ki: 2.51 µM (active)
[20]
  Ki: 3.16 µM (active)

## CC(C)(C)c1cc(C(c2cccnc2)N2CCN(CCO)CC2)cc(C(C)(C)C)c1O (stereo not drawn)
[21]
  IC50: 35.9 µM (inactive)
[22]
  EC50: 0.488 µM (active)
[23]
  AC50: 24 µM (active)
Protein RecA
  EC50: 17.3 µM (active)
[24]
  AC50: 1.7 µM (active)
[25]
  IC50: 4.68 µM (active)
[26]
  EC50: 4.59 µM (active)
[27]
  IC50: 3.96 µM (active)
[28]
  AC50: 7.04 µM (active)
[29]
  EC50: 7.35 µM (inactive)
[30]
  AC50: 20 µM (active)
Beta-galactosidase
  IC50: > 66.6 µM (inactive)
[31]
  EC50: 3.45 µM (active)
[32]
  EC50: 3.77 µM (active)
[33]
  IC50: > 64.6 µM (inactive)
[34]
  AC50: 25.2 µM (active)
Melanocortin receptor 4
  IC50: 25.1 µM (inactive)

## COc1cc(Nc2ncc3c(n2)-c2ccc(Cl)cc2C(c2c(F)cccc2OC)=NC3)ccc1C(=O)O [ALISERTIB]
[1]
  Ki: > 1 µM (inactive)
[35]
  Ki: > 1 µM (inactive)
[12]
  Ki: 0.631 µM (active)
[36]
  Ki: 0.316 µM (active)
Activin receptor type-1
  Ki: > 3.98 µM (inactive)
[37]
  Ki: 0.398 µM (active)
[38]
  Ki: 0.316 µM (active)
[39]
  Ki: 1 µM (active)

Reference: ChEMBL document CHEMBL1201862, “PubChem BioAssay data set” (2004)
